Source: a melting point compilation (Tetko et al.; mined from patent text by program, amines drawn as free bases though some values may be those of a salt)

**Q.** For `CC1(C)OC(=O)Nc2ccc(-c3cncc(Br)c3)cc21`, which melting point is on record?
**A.** 211 to 212 °C

**Q.** With `CON1C(=O)CC2(CCN(C(=O)C3=C(C)NC(C)=C([N+](=O)[O-])C3c3ccccc3C(F)(F)F)CC2)C1=O` (centres undefined) as the compound, how does the melting point read?
**A.** 261 to 263 °C

**Q.** With `O=C(O)/C=C/c1ccc(-c2nc3c(=O)n(CC4CCCC4)c(=O)n(CC4CCCC4)c3[nH]2)cc1` as the compound, how does the melting point read?
**A.** > 300 °C

**Q.** Which melting point does the source give for `CC(C)OCCOc1ccc(-c2nc(C(=O)Nc3nccs3)c(-c3ccc(Cl)cc3)[nH]2)cc1` here?
**A.** 121 to 125 °C

**Q.** For `Nc1ncnc2c1ncn2Cc1nc2cccc(F)c2c(=O)n1-c1ccccc1Cl`, which melting point is on record?
**A.** 159 to 172 °C

**Q.** Which melting point does the source give for `COC[C@H](C)N1CCc2sc(Nc3ncc(F)cn3)nc2-c2c[nH]nc21` here?
**A.** 249 to 251 °C

**Q.** For `CC(C)(N)CNC(=O)CNC(=O)Cc1ccccc1`, which melting point is on record?
**A.** 150 to 155 °C

**Q.** For `Cc1nc(-c2cn(-c3cc(-c4ccc(C(F)(F)F)cc4)cc(C(F)(F)F)n3)cn2)sc1S(=O)(=O)NC(C)(C)C`, which melting point is on record?
**A.** 260 °C

**Q.** Which melting point does the source give for `COC(=O)c1nc(CCN(C)C)n2c1CN=C(c1ccccc1Cl)c1cc(Cl)ccc1-2` here?
**A.** 203 to 204 °C

**Q.** Which melting point does the source give for `CCOC(=O)c1cc(C(C)C)n(C)n1` here?
**A.** 70.5 to 71 °C

**Q.** For `O=C(O)c1oc2ccccc2c1CCc1ccccc1`, which melting point is on record?
**A.** 169 to 172 °C

**Q.** With `CCCc1c2nc(C(=O)OC)cc(N(C)S(=O)(=O)c3ccc(C)cc3)c2cc2c(=O)cc(C(=O)OCC)oc12` as the compound, how does the melting point read?
**A.** 173 to 174 °C

**Q.** With `Cc1nnc(-c2ccc3occ(-c4ccc(S(C)(=O)=O)cc4Cl)c3c2)o1` as the compound, how does the melting point read?
**A.** 198 to 199 °C

**Q.** With `CNc1cc(Oc2ccc3c(C(=O)Nc4ccc(N5CCOCC5)c(C(F)(F)F)c4)cccc3c2)ncn1` as the compound, how does the melting point read?
**A.** 156 to 157 °C

**Q.** Which melting point does the source give for `CCOC(=O)c1noc2ccccc12` here?
**A.** 53 to 55 °C

**Q.** Which melting point does the source give for `O=C(O)C(Cc1ccc(OCCn2c(-c3ccccc3)nc3ccccc32)cc1)n1cccc1` (centres undefined) here?
**A.** 210 to 212 °C

**Q.** For `O=C(NC(O)C(=O)O)c1c(F)cccc1F` (centres undefined), which melting point is on record?
**A.** 125 to 127 °C

**Q.** With `CC(=O)N1CC(C)=NN(c2cc(Cl)c(Cc3ccc(Cl)cc3)c(Cl)c2)C1=O` as the compound, how does the melting point read?
**A.** 101 to 102 °C

**Q.** With `Cc1ccc(S(=O)(=O)OC2=C(Br)C(=O)c3ccc4c(c3C2=O)C=CC(C)(C)O4)cc1` as the compound, how does the melting point read?
**A.** 182 to 184 °C

**Q.** With `Cc1nc2c(c(Cl)c1C(=O)NC(=N)N)CCCCC2` as the compound, how does the melting point read?
**A.** 210 to 212 °C

**Q.** Which melting point does the source give for `CC(C)Sc1nc(-c2ccc(F)cc2)c(-c2ccncc2)[nH]1` here?
**A.** 263 to 264 °C

**Q.** For `Cc1ccc(-c2cc(-c3ccc(F)cc3)c(C(=O)NCc3ccc(C(=O)NO)cc3)[nH]2)cc1`, which melting point is on record?
**A.** 213 to 215 °C

**Q.** Which melting point does the source give for `Cc1ncc(CN2CC=C(c3ccc(F)cc3)CC2)c(N)n1` here?
**A.** 176 to 178 °C

**Q.** Which melting point does the source give for `OCC1CN(C(c2ccccc2)c2ccccc2)C1` here?
**A.** 114 to 116 °C

**Q.** For `COCOc1ccccc1-c1cc(-c2ccccc2C(=O)OC)c(C#N)c(N)n1`, which melting point is on record?
**A.** 109 to 110 °C

**Q.** With `CC(=O)Nc1nnc(S(=O)(=O)Cc2ccccc2)o1` as the compound, how does the melting point read?
**A.** 245 to 248 °C

**Q.** Which melting point does the source give for `CCN1CCC/C1=C\c1nc(-c2ccc(F)cc2)c(-c2ccncc2)n1CCCc1ccccc1` here?
**A.** 127 to 128 °C

**Q.** With `COc1ccc(-c2cc(O)ccc2-c2ncnc(-c3ccccc3)n2)cc1` as the compound, how does the melting point read?
**A.** 177 to 178 °C

**Q.** For `CCCc1c(OCC(O)CNc2cccc(N)c2C#N)ccc(C(C)=O)c1O` (centres undefined), which melting point is on record?
**A.** 111 to 114 °C

**Q.** Which melting point does the source give for `O=C(NC1CNC1=O)OCc1ccccc1` (centres undefined) here?
**A.** 160 to 161 °C

**Q.** With `COc1ccc(-c2cc(-c3ccc(F)cc3)ccc2C(=O)O)cc1OC` as the compound, how does the melting point read?
**A.** 210 °C

**Q.** Which melting point does the source give for `Cc1c(C)c(N2Cc3ccccc3C2)c(C)c2c1OC(C)(C)C2` here?
**A.** 161 to 163 °C

**Q.** With `CC(C)CC(=O)Nc1cccc(-c2ccnc3c(-c4ccc5[nH]ccc5c4)cnn23)c1` as the compound, how does the melting point read?
**A.** 167 to 169 °C

**Q.** Which melting point does the source give for `O=C1NC(=O)C(CCCCCc2ccc(O)cc2)O1` (centres undefined) here?
**A.** 96 to 97 °C

**Q.** For `CCOC(=O)C1=C(COCC2=CC(=O)N=N2)NC(C)=C(C(=O)OC)C1c1ccccc1Cl` (centres undefined), which melting point is on record?
**A.** 207 °C

**Q.** With `O=C([C@H]1CC[C@H](Nc2ncc3ncnc(Nc4ccc(F)c(Cl)c4)c3n2)CC1)N1CCCC1` as the compound, how does the melting point read?
**A.** 206 to 209 °C

**Q.** Which melting point does the source give for `CC(C=CC=C(C)CCCC(C)CCCC(C)C)=CC(=O)O` (centres undefined) here?
**A.** 84.5 to 85.5 °C

**Q.** Which melting point does the source give for `O=C(Nc1ccc(C(=O)NCCCN2CCOCC2)cc1O)C(=O)Nc1cc(Cl)cc(Cl)c1O` here?
**A.** 227 °C

**Q.** With `O=C(O)C(c1ccccc1)n1cnc2[nH]ncc2c1=S` (centres undefined) as the compound, how does the melting point read?
**A.** 95 to 98 °C

**Q.** For `CCCCc1nc2c(N)nc3c(c2n1CCCCN)CCCC3`, which melting point is on record?
**A.** 63 to 67 °C

**Q.** For `CCc1nccn1Cc1ccc2c(c1)-c1[nH]nc(-c3ccsc3)c1C2`, which melting point is on record?
**A.** 238 to 239 °C

**Q.** For `Clc1ccc(CCNc2ccc3ccc(NCCc4ccc(Cl)cc4)nc3c2)cc1`, which melting point is on record?
**A.** 55 to 60 °C

**Q.** Which melting point does the source give for `O=C(NN=C(c1ccc(Cl)cc1)c1ccc(OC(F)(F)C(Cl)Cl)cc1)OCC(Cl)(Cl)Cl` here?
**A.** 97 to 103 °C

**Q.** With `Cc1c(CC(=O)N(C)C)oc2ccc(F)cc12` as the compound, how does the melting point read?
**A.** 88 to 90 °C

**Q.** For `Cc1cc(C)c(CC(=O)N(C)CC(=O)O)c(C)c1`, which melting point is on record?
**A.** 140 °C

**Q.** For `O=C(O)CCc1oc(-n2ccnc2-c2ccccc2)nc1-c1ccc(Cl)cc1`, which melting point is on record?
**A.** 179 to 180 °C

**Q.** With `Cc1c(SCCCN2CCN(Cc3ccncc3)CC2)ccnc1CNc1ncncc1Cl` as the compound, how does the melting point read?
**A.** 149 to 151 °C

**Q.** For `COC(=O)C(=C(/C)c1cc(OC)cc(OC)c1)/C(=C\c1ccccc1)C(=O)NN1CCN(C)CC1`, which melting point is on record?
**A.** 117 to 121 °C

**Q.** For `COc1ccc(C(=O)Nc2ccccc2)cc1N(S(=O)(=O)c1cc(Cl)cc(Cl)c1)S(=O)(=O)c1cc(Cl)cc(Cl)c1`, which melting point is on record?
**A.** 228 to 231 °C
